Article PMC7999182, “Interaction of Remdesivir with Clinically Relevant Hepatic Drug Uptake Transporters” (Pharmaceutics, 2021)

Columns and labels:
OCT1 = target: T1, OCT1 (Homo sapiens, UniProt O15245); assay: Remdesivir uptake into HEK cells stably expressing OCT1 vs vector control; assay type: in vitro ADME; conditions: 5 µM remdesivir, 10 min, transporter-expressing vs control HEK cells
T1 construct: expressed in transfected cells
T1 sequence (O15245 1-554): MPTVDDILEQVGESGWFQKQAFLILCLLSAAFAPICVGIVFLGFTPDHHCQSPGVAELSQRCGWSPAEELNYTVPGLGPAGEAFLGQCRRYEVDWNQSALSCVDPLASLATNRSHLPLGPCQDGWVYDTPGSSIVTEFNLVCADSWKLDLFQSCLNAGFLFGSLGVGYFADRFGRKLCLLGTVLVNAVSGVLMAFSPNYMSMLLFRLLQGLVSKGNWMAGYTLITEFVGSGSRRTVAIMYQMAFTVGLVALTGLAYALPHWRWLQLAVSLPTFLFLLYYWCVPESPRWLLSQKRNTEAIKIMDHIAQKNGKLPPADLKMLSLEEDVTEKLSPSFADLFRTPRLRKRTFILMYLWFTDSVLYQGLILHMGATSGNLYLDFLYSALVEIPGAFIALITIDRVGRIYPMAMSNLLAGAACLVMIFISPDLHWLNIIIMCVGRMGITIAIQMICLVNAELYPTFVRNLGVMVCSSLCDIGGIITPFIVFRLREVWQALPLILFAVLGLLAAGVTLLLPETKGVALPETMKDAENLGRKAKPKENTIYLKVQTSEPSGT
Source text: (§1) Generation, cultivation and characterization of human embryonic kidney (HEK) cells stably expressing OATP1B1 refseq (=OATP1B1*1a), OATP1B1*1b, OATP1B1*5 and OATP1B1*15 [18], OATP1B3 [19], OATP2B1 [13] and OCT1 [20] have been described previously. OATP1B1 cells were cultivated in minimal essential medium (Life Technologies, Paisley, UK) and OATP1B3, OATP2B1 and OCT1 cells were cultivated in Dulbecco’s modified Eagle medium (Sigma, Darmstadt, Germany). Cultivation media were supplemented with 10% fetal calf serum, 100 U/mL penicillin and 100 µg/mL streptomycin. Cells were grown at 37 °C and 5% CO2. Functionality of the cells was confirmed by measuring uptake of prototypic substrates (see Section 2.3 and supplementary material).
(§2) Uptake assays were conducted at 37 °C according to previously described methods. For this, cells were seeded in 24-well plates (320,000 cells/well) and cultured for 2 days. Cells were then incubated for a further 24 h in culture medium with 5 mM butyrate (OATP1B3, OATP2B1, OCT1) or 10 mM butyrate (OATP1B1) to increase protein levels of recombinant transporters. […]
(§3) Remdesivir was determined by UHPLC-MS-MS analysis on an Agilent 1290 infinity UHPLC system coupled to an Agilent 6495B triple quadrupole mass spectrometer (Agilent, Waldbronn, Germany) similar to a recently published method. […]

[1] = system: vector-transfected control cells; assay: Remdesivir accumulation into vector-transfected control HEK cells; assay type: in vitro ADME, human; conditions: 5 µM remdesivir, 10 min
Source text: as §1, §2, §3

OATP1B1*5 = target: T2, OATP1B1*5 (Homo sapiens, UniProt Q9Y6L6, V174A); assay: Remdesivir uptake into HEK cells stably expressing OATP1B1*5 vs vector control; assay type: in vitro ADME; conditions: 0.5 µM remdesivir, 10 min
T2 construct: expressed in transfected cells
T2 sequence (Q9Y6L6 1-691 V174A): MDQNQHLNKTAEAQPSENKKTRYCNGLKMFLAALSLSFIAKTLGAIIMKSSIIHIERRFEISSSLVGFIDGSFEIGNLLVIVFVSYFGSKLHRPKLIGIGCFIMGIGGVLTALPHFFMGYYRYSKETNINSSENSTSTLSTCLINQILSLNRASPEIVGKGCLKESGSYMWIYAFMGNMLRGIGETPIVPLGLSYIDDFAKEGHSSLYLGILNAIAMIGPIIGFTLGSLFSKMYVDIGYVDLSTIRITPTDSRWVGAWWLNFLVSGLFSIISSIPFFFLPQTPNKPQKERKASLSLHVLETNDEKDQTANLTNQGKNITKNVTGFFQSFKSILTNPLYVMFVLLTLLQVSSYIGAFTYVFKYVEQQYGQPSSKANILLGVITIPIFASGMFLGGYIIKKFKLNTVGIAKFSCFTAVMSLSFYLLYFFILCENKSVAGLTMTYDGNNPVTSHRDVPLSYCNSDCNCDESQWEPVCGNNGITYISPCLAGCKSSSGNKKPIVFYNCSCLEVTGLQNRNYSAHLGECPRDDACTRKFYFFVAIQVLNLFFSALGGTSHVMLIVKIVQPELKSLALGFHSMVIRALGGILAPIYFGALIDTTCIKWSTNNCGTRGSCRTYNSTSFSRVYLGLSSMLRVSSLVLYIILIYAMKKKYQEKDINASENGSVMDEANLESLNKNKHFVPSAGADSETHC
Source text: as §1, §2, §3

CCC(CC)COC(=O)[C@H](C)N[P@](=O)(OC[C@H]1O[C@@](C#N)(c2ccc3c(N)ncnn23)[C@H](O)[C@@H]1O)Oc1ccccc1 [Remdesivir]
Remdesivir uptake ratio (OCT1): 1.2
Accumulation into control cells [1]: high remdesivir accumulation
Uptake vs vector-transfected control cells (OATP1B1*5): significantly lower uptake
